Data published in patent US11180657B2, “Polysulfonated fluorescence dyes” (ATTO-TEC GmbH, priority 2017, dated 2021).
Marks after values point to notes of the source that are not given here.

Experiments:
Format in all cases: physicochemical
[1] = Fluorescence maximum of the dye; details: solvent PBS pH 7.4
Excerpt: (§1) Examples of the compounds according to the invention are listed in Tables 2-6, where the structures as well as the absorption and fluorescence maxima are indicated. The spectra of selected compounds are shown FIGS. 5-18.

[2] = Absorption maximum of the dye
Excerpt: as §1

[3] = Lactone or pseudobase formation in aqueous weakly alkaline solution; details: aqueous weakly alkaline solutions; reversible
Excerpt: Normally such lactones are adequately stabilized only in aprotic solvents such as acetone or chloroform. In protic solvents the carboxyl group is deprotonated and a slightly more short-wave absorbing and fluorescent zwitterion is formed. In the exemplary compounds, however, colorless compounds are formed due to the strong electron attraction of the indicated substituents, due to internal ester formation and the associated interruption of the conjugated system. If the carboxyl group is not free but is present as an ester or tertiary amide, so-called pseudobases are formed, through nucleophilic attack (hydroxide ions etc.) at the central carbon atom, which is stronger positivized by the electron-attracting substituents, which pseudobases are likewise colorless due to the interruption of the conjugated system. Both reactions are reversible; by changing the pH value, the dielectric constant (“polarity”) and/or the capability of hydrogen bridge bonding (“proticity”), the dye can be restored. Therefore such compounds can in principle be used as probes for the properties of their direct environment: Depending on the milieu, the molecules are present in colorless or colored form. Associated therewith is also a sort of fluorogenicity, because the longwave fluorescence appears only in the dye form.

[4] = target: T1, streptavidin (Streptomyces avidinii, UniProt P22629); assay: Fluorescence quantum yield of the dye after coupling to streptavidin, relative to the uncoupled dye; details: streptavidin conjugate
T1 construct: purchased IBA
Excerpt: The average number of dye molecules per biomolecule is expressed by the “degree of labeling” (DOL). […] Since the dye also absorbs in UV, the (total) absorption measured there must still be corrected with the absorption of the dye at this wavelength in order to obtain the actual biomolecule absorption. For this purpose, with commercial dyes, so-called CF values (correction factor values) are given, which describe the ratio of absorptions of the dye at the longwave maximum and at 260 nm or 280 nm.
From the thus obtained (individual) absorptions of dye and biomolecule in the conjugate, taking into consideration the two extinction coefficients, the quotient is formed, which directly indicates the molecular concentration ratio and thus the mean number of dye molecules per biomolecule (“degree of labeling,” DOL).
The compounds listed in Table 1 belong to the class of rhodamines with the same chromophore system. In an aqueous solution at room temperature they all have a comparably high fluorescence quantum yield of about 90%. […] Thus with established marking procedures, a much better detection reliability is achieved.
2 mg of streptavidin (IBA, content approx. 75%) are dissolved under cautious swirling in a glass vial with 1 ml of PBS buffer (pH 7.4) and 50 μl of a 0.2 M sodium hydrogen carbonate solution, which is set to a pH of 9 with sodium hydroxide. The clear solution has a pH-value of 8.3.
40.5 μl of a solution of 170 μg of compound 7 in 50 μl of dry DMSO are added; this corresponds to a dye-streptavidin ratio of 4:1.
The reaction solution is kept for two hours at room temperature and then kept overnight in the refrigerator at 4° C.
Purification is performed in the usual manner over superfine Sephadex G25 (column length 40 cm, diameter 2.5 cm) with PBS buffer as the eluent. The first colored zone contains the streptavidin conjugate.
The DOL can be calculated from the absorption spectrum of the conjugate fraction by the known procedure.

[5] = Fluorescence quencher property (dye itself not fluorescent)
Excerpt: A particular subgroup of the compounds according to the invention is fluorescence quenchers. These dyes are not fluorescent themselves, but can act as acceptors for the emission of fluorescent compounds. A widespread area of use of such quenchers is for instance the measurement of the geometry (distances, size, and arrangement of molecular groups) or the reactivity (enzyme activity, reaction speeds, etc.) using Förster resonance energy transfer (FRET). The fluorescence of the donor can only appear when the distance between donor and acceptor exceeds a critical value. Below this distance, the fluorescence of the donor is quenched by the acceptor (=quencher) which is not fluorescent by itself. An overview of the bioanalytical applications of the FRET technology is provided for example by A. Roda, M. Guardigli, E. Micheline, M. Mirasoli, Nanobioanalytical luminescence: Förster-type energy transfer methods, Anal. Bioanal. Chem. 393, 2009, 109-123.
Examples of quenchers according to the invention are compounds 14, 15, 16 and 17. These rhodamines represent a further development of the dyes designated as “violamines” because of their magenta-colored solutions, see for example H. E. Fierz-David, Künstliche Organische Farbstoffe [Artificial Organic Dyes], Springer-Verlag, Berlin, 1926, p. 276ff. However, also the structure of other dye classes may be modified in this way. Examples according to the invention include compounds 49, 50 and 51 from the class of carbopyronines.

T1 sequence (P22629 38-163 limits assumed): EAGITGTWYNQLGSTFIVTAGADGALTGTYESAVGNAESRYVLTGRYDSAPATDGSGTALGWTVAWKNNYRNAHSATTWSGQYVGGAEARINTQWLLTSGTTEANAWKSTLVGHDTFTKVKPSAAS

SMILES	fluorescence quencher (not fluorescent itself, acceptor for emission of fluorescent compounds) [5]	λabs ([2]; solvent PBS pH 7.4)	λfl [1]	λabs ([2]; solvent water/acetonitrile 1:1)	formation of colorless lactone or pseudobase [3]	also measured
CN(CCCC(=O)O)C(=O)c1ccccc1-c1c2cc(S(=O)(=O)O)/c(=N/Cc3ccc(S(=O)(=O)O)cc3S(=O)(=O)O)cc-2oc2cc(NCc3ccc(S(=O)(=O)O)cc3S(=O)(=O)O)c(S(=O)(=O)O)cc12 [Compound 6]	–	–	559^b nm	534^c nm	easily form a lactone or pseudobase	Fluorescence quantum yield of the dye following coupling to streptavidin in comparison with the uncoupled dye ([4]; DOL 2.5, PBS-buffer 25° C.): 42%; Fluorescence quantum yield of the dye following coupling to streptavidin in comparison with the uncoupled dye ([4]; DOL 5.5, PBS-buffer 25° C.): 37%
CN(CCCC(=O)NCCCCCC(=O)O)C(=O)c1ccccc1-c1c2cc(S(=O)(=O)O)/c(=N/Cc3ccc(S(=O)(=O)O)cc3S(=O)(=O)O)cc-2oc2cc(NCc3ccc(S(=O)(=O)O)cc3S(=O)(=O)O)c(S(=O)(=O)O)cc12 [Compound 12]	–	–	555^b nm	536^c nm	easily form a lactone or pseudobase	Fluorescence quantum yield of the dye following coupling to streptavidin in comparison with the uncoupled dye ([4]; DOL 3.0, PBS-buffer 25° C.): 27%
CN(CCCC(=O)O)C(=O)c1ccccc1-c1c2cc(S(=O)(=O)O)/c(=N/CCc3ccc(S(=O)(=O)O)cc3)cc-2oc2cc(NCCc3ccc(S(=O)(=O)O)cc3)c(S(=O)(=O)O)cc12 [Compound 19]	–	–	560^b nm	537^c nm	easily form a lactone or pseudobase	Fluorescence quantum yield of the dye following coupling to streptavidin in comparison with the uncoupled dye ([4]; DOL 5.6, PBS-buffer 25° C.): 10%
CN(CCCC(=O)O)C(=O)c1ccccc1-c1c2cc(S(=O)(=O)O)/c(=N/CCc3ccc(S(=O)(=O)O)cc3S(=O)(=O)O)cc-2oc2cc(NCCc3ccc(S(=O)(=O)O)cc3S(=O)(=O)O)c(S(=O)(=O)O)cc12 [Compound 25]	–	539^b nm	560^b nm	–	easily form a lactone or pseudobase	Fluorescence quantum yield of the dye following coupling to streptavidin in comparison with the uncoupled dye ([4]; DOL 2.8, PBS-buffer 25° C.): 45%; Fluorescence quantum yield of the dye following coupling to streptavidin in comparison with the uncoupled dye ([4]; DOL 6.7, PBS-buffer 25° C.): 35%
CN(CCCC(=O)O)C(=O)c1ccccc1-c1c2cc/c(=N/CCc3ccc(S(=O)(=O)O)cc3)c(S(=O)(=O)O)c-2oc2c(S(=O)(=O)O)c(NCCc3ccc(S(=O)(=O)O)cc3)ccc12 [Compound 26]	–	–	558^b nm	538^c nm	–	Fluorescence quantum yield of the dye following coupling to streptavidin in comparison with the uncoupled dye ([4]; DOL 7.0, PBS-buffer 25° C.): 8%

Further lines, with some results ahead:

fluorescence quencher (not fluorescent itself, acceptor for emission of fluorescent compounds) [5]	λabs ([2]; solvent PBS pH 7.4)	SMILES	λfl [1]	λabs ([2]; solvent water/acetonitrile 1:1)	formation of colorless lactone or pseudobase [3]	also measured
quenchers	–	O=C(O)c1ccccc1-c1c2cc(S(=O)(=O)O)/c(=N/c3ccc(S(=O)(=O)O)cc3)cc-2oc2cc(Nc3ccc(S(=O)(=O)O)cc3)c(S(=O)(=O)O)cc12 [Compound 15]	–	558^c nm	–	–
quenchers	–	CN(CCCC(=O)O)C(=O)c1ccccc1-c1c2cc(S(=O)(=O)O)/c(=N/c3ccc(S(=O)(=O)O)cc3)cc-2oc2cc(Nc3ccc(S(=O)(=O)O)cc3)c(S(=O)(=O)O)cc12 [Compound 16]	–	566^c nm	–	–
quenchers	–	CN(CCCC(=O)O)C(=O)c1ccccc1-c1c2cc/c(=N\c3ccc(S(=O)(=O)O)cc3)c(S(=O)(=O)O)c-2oc2c(S(=O)(=O)O)c(Nc3ccc(S(=O)(=O)O)cc3)ccc12 [Compound 17]	–	555^c nm	–	–
quenchers	648^b nm	CC1(C)c2cc(Nc3ccc(S(=O)(=O)O)cc3)ccc2C(c2c(F)c(F)c(SCC(=O)O)c(F)c2F)=c2cc3c(cc21)=[N+](Cc1ccc(S(=O)(=O)O)cc1S(=O)(=O)O)CCC3 [Compound 49]	–	–	–	–
quenchers	669^b nm	CC1=CC(C)(C)[N+](Cc2ccc(S(=O)(=O)O)cc2S(=O)(=O)O)=c2cc3c(cc21)=C(c1c(F)c(F)c(SCC(=O)O)c(F)c1F)c1ccc(Nc2ccc(S(=O)(=O)O)cc2)cc1C3(C)C [Compound 50]	–	–	–	–
quenchers	650^b nm	CC1(C)c2cc(Nc3ccc(S(=O)(=O)O)cc3)ccc2C(c2c(F)c(F)c(SCC(=O)O)c(F)c2F)=c2cc3c(cc21)=[N+](Cc1ccc(S(=O)(=O)O)cc1S(=O)(=O)O)C(C)(C)CC3CS(=O)(=O)O (stereo not drawn) [Compound 51]	–	–	–	–
